Our source for the viability values is patent publication US20160145580A1, “METHOD OF CULTURING CANCER STEM CELLS” (AGENCY FOR SCIENCE, TECHNOLOGY AND RESEARCH, priority 2013, published 2016).

The test system of this assay is MDA-MB-231 cells. The assay can be described thus: cells. Format: cell-based. The settings on record: Homo sapiens, MDA-MB-231, 48 h. How it is done: Here, 250 μl of MDA-MB-231 cells in culture medium at cell density of 5.2×10^3 cells/ml was seeded onto the gels (0.2, 0.5, 1.0, 2.5 and 4.0 kPa). The culture medium was changed every 3 days. […] Then, the cells were washed with PBS and the fluorescence intensity was measured using the AlamarBlue cell viability assay as described above. Cell viability in the presence of anti-cancer drugs was normalized to the untreated control groups (0 μM).

SMILES strings stand for the structures. Where two headings read alike, the source gives them in different places.

One may read the viability as a read-out of living cells in per cent, often relative to untreated cells. As to `COc1cccc2c1C(=O)c1c(O)c3c(c(O)c1C2=O)C[C@@](O)(C(=O)CO)C[C@@H]3O[C@H]1C[C@H](N)[C@H](O)[C@H](C)O1` [doxorubicin], the viability at 100 µM was roughly 80% (read-out: cell viability, 100 μM doxorubicin, 48 hours, 0.2 and 0.5 kPa gels); roughly 20% (read-out: cell viability, 100 μM doxorubicin, 48 hours, HA-Tyr gels 2.5 and 4.0 kPa); roughly 10% (read-out: cell viability, 100 μM doxorubicin, 48 hours, cell culture plate).
